# Test results: patent US20210355435A1, “CULTURE MEDIUM COMPRISING KETO ACIDS” (Evonik Operations GmbH, priority 2018, published 2021)
# Assays:
# [1] = tested on: CHO cells (subclone DG44); test: Growth of CHO cells in medium with keto leucine instead of L-leucine; assay type: cell-based, Chinese hamster; conditions: keto leucine as calcium salt instead of L-leucine, up to 178 mg/l, third passage
# Protocol: (§1) Antibody producing chinese hamster ovary (CHO) cells (subclone DG44) were cultivated in shake flasks (125 ml or 250 ml with a culture volume of 50 ml or 100 ml respectively) in TC42/CHOMACS CD culture medium (TeutoCell AG) containing 8 mM L-glutamine. The culture medium was prepared by mixing two solutions. The first contained the conventional medium formulation (containing L-leucine and calcium chloride). In the second, the amino acid L-leucine in the culture medium was substituted by keto leucine (178 mg/l) as calcium salt in equimolar quantities. These solutions were mixed in different ratios. The growth of cells cultivated in the different mixtures was compared to cells cultivated in the conventional culture medium.
# A corresponds to cells cultivated in a culture medium containing 178 mg/L of keto leucine, B to a mixture containing 30% (v/v) of the keto leucine solution, C to a mixture containing 5% (v/v) of the keto leucine solution and a reference containing only L-leucine.
# [2] = tested on: CHO cells (subclone DG44); test: Antibody production in CHO cells with keto leucine instead of L-leucine; assay type: cell-based, Chinese hamster; conditions: keto leucine as calcium salt, reference normalized to 1.0
# Protocol: as §1
# The concentration of antibody produced by the cells cultivated in the reference culture medium containing L-leucine (Reference) were normalized to 1.0.
smiles,measurement,setting,value
"CC(C)CC(=O)C(=O)O [keto leucine, alpha-keto isocaproate]",viable cell density versus reference medium with L-leucine,[1],slightly reduced
same,antibody production with keto leucine instead of L-leucine,[2],L-leucine can be substituted
